Measurements as given in patent US20110152271A1, “Compositions and methods for ophthalmic delivery of nasal decongestants” (priority 2009, published 2011).
Read-outs that look alike come from different tables or passages of the source.

How the values were obtained:
[1] = 0.025% brimonidine topically to one eye; 10 minutes; 11 individuals
Experimental: 11 individuals were asked to assess the patency of each nostril by alternately closing one. They were then given 0.025% brimonidine topically to one randomly selected eye. After 10 minutes each nostril was alternately closed to assess the patency of the contralateral nostril and compare to its patency before applying brimonidine to the eye. […] Nasal patency refers to a basic evaluation of the degree to which a nostril is open (i.e. unblocked).

[2] = 0.025% brimonidine in one eye
Experimental: Eight (8) human subjects were administered 0.025% brimonidine. The subjects were administered with the drug in one eye and then asked to assess themselves in the mirror to see if they perceived a difference in conjunctival hyperemia between eyes. The drug was administered around 9:15 am. The assessments were made 5 minutes after the administration and 4 hours after the administration. After the four hours assessment, the drug was re-administered.

[3] = Experimental: 1 drop of 0.025% brimonidine was applied to the right eye of each patient. […] Then, the breathing function was measured in each nostril separately 10 minutes later. Then, 1 dose of 0.0045% brimonidine nasal spray was applied into the left nostril and the ease of breathing was again measured in each nostril separately 10 minutes later.

In the case of `Brc1c(NC2=NCCN2)ccc2nccnc12` [brimonidine], the “increase in patency in the contralateral nostril” value [1] was “not in the contralateral”, the “patients with noticeable increase in patency in the ipsilateral nostril” value [1] was 9 of the 11 and the “subjects reporting reduced hyperemia and increased whiteness in the treated eye” value ([2]; 5 min assessment) was “eight of eight”. The “subjects reporting reduced hyperemia and increased whiteness in the treated eye” value ([2]; four hour assessment) was “eight of eight”, the “subjects reporting reduced nasal congestion in the nostril on the same side as the treated eye” value ([2]; four hour assessment) was “six of eight” and the “whiteness of the treated right eye” value ([3]; 1 drop of 0.025% brimonidine to the right eye) was “In all patients, the right eye has become whiter”. The “patients reporting reduced nasal congestion in the right nostril” value ([3]; 1 drop of 0.025% brimonidine to the right eye, 10 minutes later, three subjects with records) was “all three patients reported reducing nasal congestion in the right nostril” and the “patients reporting reduced nasal congestion in both nostrils” value ([3]; after eye drop, 1 dose of 0.0045% brimonidine nasal spray into the left nostril, 10 minutes later, three subjects with records) was “all three patients reported reduced nasal congestion in the both nostrils”.
